Data set [1] relates to Rattus norvegicus. Description: Anti-inflammatory activity inRattus norvegicus albino (rat) assessed as inhibition of carrageenan-induced paw edema at 20 umol/kg, ip administered 1 hr before challenge measured after 3 hr relative to diclofenac-sodium. Type of data set: functional. On the technique in general: In the carrageenan paw model, swelling and tenderness develop within hours.

For data set [2], the system named is Rattus norvegicus. Description: Anti-inflammatory activity inRattus norvegicus albino (rat) assessed as inhibition of carrageenan-induced paw edema at 20 umol/kg, ip administered 1 hr before challenge measured after 3 hr. Type of data set: functional.
In data set [3] the test system is Rattus norvegicus. Nature of the data set: Anti-inflammatory activity inRattus norvegicus albino (rat) assessed as inhibition of carrageenan-induced paw edema at 20 umol/kg, ip administered 1 hr before challenge measured after 1 hr. It is filed as functional.
In data set [4] the test system is Rattus norvegicus. Nature of the data set: Anti-inflammatory activity inRattus norvegicus albino (rat) assessed as inhibition of carrageenan-induced paw edema at 20 umol/kg, ip administered 1 hr before challenge measured after 2 hr. It is filed as functional.
The subject of data set [5] is Rattus norvegicus. Description: Toxicity inRattus norvegicus albino (rat) assessed as ulcerogenicity at 20 umol/kg, po qd for 3 days. Type of data set: organism-based. The conditions noted are these: in vivo, 72 h.
Data set [6] relates to Rattus norvegicus. Nature of the data set: Anti-inflammatory activity in ip dosedRattus norvegicus albino (rat) assessed as inhibition of carrageenan-induced paw edema administered 1 hr before challenge measured after 3 hr. It is filed as functional, organism-based.
Data set [7] has as its system Rattus norvegicus. Description: Anti-inflammatory activity inRattus norvegicus albino (rat) assessed as inhibition of carrageenan-induced paw edema at 18 umol/kg, ip administered 1 hr before challenge measured after 3 hr. It is filed as functional.
The subject of data set [8] is Rattus norvegicus. Description: Anti-inflammatory activity inRattus norvegicus albino (rat) assessed as inhibition of carrageenan-induced paw edema at 12 umol/kg, ip administered 1 hr before challenge measured after 3 hr. Type of data set: functional.
The test system of data set [9] is Rattus norvegicus. Nature of the data set: Anti-inflammatory activity inRattus norvegicus albino (rat) assessed as inhibition of carrageenan-induced paw edema at 24 umol/kg, ip administered 1 hr before challenge measured after 3 hr. It is filed as functional.

Our source for the inhibition in vivo, UI and IC50 values is ChEMBL document CHEMBL3045768, “Potential anti-inflammatory activity and ulcerogenicity study of some novel pyrimido[4,5:4,5]pyrimido[1,6-a]azepine derivatives” (Med Chem Res, 2012).

As for `O=C1N(c2ccccc2)c2nc[nH]c(=O)c2C2C(N3CCCC3)CCCCN12` (stereo not drawn), the inhibition in vivo (in general, the percentage by which the read-out fell short of the control) at 20 µmol/kg is 37.8% in [1], 33.1% in [2], 11% in data set [3] and 26.8% in data set [4].

For the compound `O=C1N(c2ccccc2)c2ncn(CN3CCCCC3)c(=O)c2C2C(N3CCCC3)CCCCN12` (stereo not drawn), the inhibition in vivo at 20 µmol/kg in [1] came out at 33.4%; in data set [2], 29.3%; in [3], 11.9%; in data set [4], 16.4%.

Turning to `O=C1N(c2ccccc2)c2ncn(CN3CCCC3)c(=O)c2C2C(N3CCCC3)CCCCN12` (stereo not drawn), the inhibition in vivo at 20 µmol/kg came out at 37.2% in [1], 32.6% in [2], 16.2% in data set [3] and 22.3% in data set [4].

For `O=C1N(c2ccccc2)c2ncnc(N3CCCCC3)c2C2C(N3CCCC3)CCCCN12` (stereo not drawn), the inhibition in vivo at 20 µmol/kg in data set [1] turned out to be 31.9%; in data set [2], 27.9%; in data set [3], 10.3%; in data set [4], 17.4%.

For the compound `O=C1N(c2ccccc2)c2nc(CCN3CCCC3)[nH]c(=O)c2C2C(N3CCCC3)CCCCN12` (stereo not drawn), the inhibition in vivo at 20 µmol/kg in [1] came to 50.6%; in data set [2], 44.3%; in [3], 20.5%; in data set [4], 32.5%.

Regarding `O=C1N(c2ccccc2)c2nc(CN3CCOCC3)[nH]c(=O)c2C2C(N3CCCC3)CCCCN12` (stereo not drawn), the UI in data set [5] is 4.3. Further, the inhibition in vivo at 20 µmol/kg turned out to be 71.2% in [1], 62.4% in data set [2], 51.9% in [3] and 57.5% in data set [4].

Regarding `O=C1N(c2ccccc2)c2ncn(CN3CCOCC3)c(=O)c2C2C(N3CCCC3)CCCCN12` (stereo not drawn), the inhibition in vivo at 20 µmol/kg in [1] came out at 34.3%; in data set [2] it was 30.1%; in data set [3] it was 13.1%; in data set [4], 18.5%.

For the compound `O=C(O)CSCc1nc2c(c(=O)[nH]1)C1C(N3CCCC3)CCCCN1C(=O)N2c1ccccc1` (stereo not drawn), in [6], the IC50 worked out at 11.73 µmol/kg. In addition, the UI in data set [5] is 2.7. In [7], the inhibition in vivo at 18 µmol/kg turned out to be 69.3%. Further, the inhibition in vivo at 20 µmol/kg in [1] is 97.7%; in data set [2], 85.6%; in data set [3] it was 66.4%; in data set [4], 73.2%. In addition, the inhibition in vivo at 12 µmol/kg in [8] is 51.2%. Besides, the inhibition in vivo at 24 µmol/kg in data set [9] was determined as 89.6%.

Consider `O=C1N(c2ccccc2)c2nc(CCN3CCOCC3)[nH]c(=O)c2C2C(N3CCCC3)CCCCN12` (stereo not drawn), for which the UI in [5] is on record as 3.4. Besides, the inhibition in vivo at 20 µmol/kg came to 59.9% in data set [1], 52.5% in data set [2], 38.8% in [3] and 52.2% in data set [4].

Turning to `O=C1N(c2ccccc2)c2nc(CCN3CCCCC3)[nH]c(=O)c2C2C(N3CCCC3)CCCCN12` (stereo not drawn), the inhibition in vivo at 20 µmol/kg in [1] came to 47.3%; in data set [2], 41.4%; in data set [3] it was 26.8%; in data set [4], 35.7%.

As to `O=C1N(c2ccccc2)c2nc(CN3CCCC3)[nH]c(=O)c2C2C(N3CCCC3)CCCCN12` (stereo not drawn), the inhibition in vivo at 20 µmol/kg in data set [1] stood at 53.6%; in data set [2], 48.7%; in [3], 36.2%; in data set [4], 42.2%.

On to `O=C1N(c2ccccc2)c2nc(Cc3ccccc3Nc3c(Cl)cccc3Cl)[nH]c(=O)c2C2C(N3CCCC3)CCCCN12` (stereo not drawn), for which the inhibition in vivo at 20 µmol/kg in data set [1] amounted to 51.7%; in [2] it was 45.3%; in data set [3], 29.7%; in [4], 35.2%.

Regarding `O=C1N(c2ccccc2)c2ncnc(N3CCCC3)c2C2C(N3CCCC3)CCCCN12` (stereo not drawn), the inhibition in vivo at 20 µmol/kg amounted to 31.1% in data set [1], 27.3% in [2], 9.5% in data set [3] and 14.8% in [4].

For `O=C1N(c2ccccc2)c2ncnc(N3CCOCC3)c2C2C(N3CCCC3)CCCCN12` (stereo not drawn), the inhibition in vivo at 20 µmol/kg was found to be 38.6% in data set [1], 33.8% in data set [2], 17.7% in data set [3] and 21.2% in data set [4].

As to `Nc1ncnc2c1C1C(N3CCCC3)CCCCN1C(=O)N2c1ccccc1` (stereo not drawn), the inhibition in vivo at 20 µmol/kg is 38.5% in data set [1], 33.7% in [2], 17.6% in data set [3] and 22.8% in data set [4].

Take `N#CC1=C(NC(=O)Cc2ccccc2Nc2c(Cl)cccc2Cl)N(c2ccccc2)C(=O)N2CCCCC(N3CCCC3)C12` (stereo not drawn): the UI in [5] is 4.1. The inhibition in vivo at 20 µmol/kg is 76.7% in data set [1], 67.2% in data set [2], 31.9% in [3] and 48.5% in data set [4].

For the compound `O=C(SCc1nc2c(c(=O)[nH]1)C1C(N3CCCC3)CCCCN1C(=O)N2c1ccccc1)c1ccccc1O` (stereo not drawn), the UI in [5] stood at 3.4. Further, the inhibition in vivo at 20 µmol/kg in [1] stood at 56.4%; in [2], 49.7%; in [3], 29.8%; in data set [4] it was 36.9%.

With `N#CC1=C(NC(=O)c2ccccc2O)N(c2ccccc2)C(=O)N2CCCCC(N3CCCC3)C12` (stereo not drawn), the UI in data set [5] is on record as 3.4. For the same compound, the inhibition in vivo at 20 µmol/kg turned out to be 74.7% in data set [1], 65.4% in [2], 44.7% in data set [3] and 53.8% in data set [4].

Consider `O=C(Cc1ccccc1Nc1c(Cl)cccc1Cl)SCc1nc2c(c(=O)[nH]1)C1C(N3CCCC3)CCCCN1C(=O)N2c1ccccc1` (stereo not drawn), for which the UI in data set [5] is 2.6. Moreover, the inhibition in vivo at 20 µmol/kg amounted to 61.3% in data set [1], 53.1% in data set [2], 33.1% in [3] and 45.8% in data set [4].

Regarding `O=C([O-])Cc1ccccc1Nc1c(Cl)cccc1Cl.[Na+]` [DICLOFENAC SODIUM], the IC50 in [6] is 7.26 µmol/kg. The UI in data set [5] turned out to be 9. For the same compound, in data set [7], the inhibition in vivo at 18 µmol/kg worked out at 79.3%. Moreover, the inhibition in vivo at 12 µmol/kg in data set [8] is 59.5%. Besides, the inhibition in vivo at 20 µmol/kg came out at 87.6% in data set [2], 68.6% in [3] and 83.5% in data set [4]. Besides, the inhibition in vivo at 24 µmol/kg in data set [9] turned out to be 88.2%.

As to `O=C1N(c2ccccc2)c2nc(-c3ccccc3O)[nH]c(=O)c2C2C(N3CCCC3)CCCCN12` (stereo not drawn), the inhibition in vivo at 20 µmol/kg in [1] was 42.5%; in data set [2] it was 37.2%; in data set [3] it was 21.9%; in data set [4], 27.9%.

For `O=C1N(c2ccccc2)c2nc(CN3CCCCC3)[nH]c(=O)c2C2C(N3CCCC3)CCCCN12` (stereo not drawn), the inhibition in vivo at 20 µmol/kg worked out at 48.4% in data set [1], 42.4% in [2], 28% in data set [3] and 37.2% in data set [4].
